Measured values: patent US8674118B2, “Compounds and methods for the treatment or prevention of flavivirus infections” (priority 2005, dated 2014)
Where a name gives a salt, the structure may show the parent alone. Read-outs that look alike come from different tables or passages of the source.

Test system: HCV RNA replication (replicon cell lines Huh-7, 5.2 and ET)
Assay: Cell-Based Luciferase Reporter HCV RNA Replication Assay
Settings: Huh-7, 5.2 or ET replicon cells, luciferase counts after 4 days incubation, read-out: IC50

Row | SMILES | IC50 | IC50 (Hepatitis C virus, Huh-7, 96 h)
1 | CC1CCC(C(=O)N(c2cc(C3=CCCC(C)C3)sc2C(=O)O)C2CCC(O)CC2)CC1 (stereo not drawn) [Compound 61, RS-3-[(4-trans-hydroxy-cyclohexyl)-(4-trans-methyl-cyclohexanecarbonyl)-amino]-5-(5-methyl-cyclohex-1-enyl)-thiophene-2-carboxylic acid] | < 5 µM | –
2 | C[C@H]1CC[C@H](C(=O)N(c2cc(C3=CCCCC3)sc2C(=O)O)[C@H]2CC[C@H](c3nnn[nH]3)CC2)CC1 [Compound 62, 5-cyclohex-1-enyl-3-{(trans-4-methyl-cyclohexanecarbonyl)-[trans-4-(1h-tetrazol-5-yl)-cyclohexyl]-amino}-thiophene-2-carboxylic acid] | – | < 5 µM
3 | CC1CCC(C(=O)N(c2cc(C3=CCCCC3)sc2C(=O)O)C2CC[S+]([O-])CC2)CC1 (stereo not drawn) [Compound 63, 5-cyclohex-1-enyl-3-[(trans-4-methyl-cyclohexanecarbonyl)-(1-oxo-hexahydro-1-thiopyran-4-yl)-amino]-thiophene-2-carboxylic acid] | – | < 5 µM
4 | CC1(C)CCC(c2cc(N(C(=O)[C@H]3CC[C@H](C)CC3)[C@H]3CC[C@H](O)CC3)c(C(=O)O)s2)CC1 [Compound 64, 5-(4,4-dimethyl-cyclohexyl)-3-[(trans-4-hydroxy-cyclohexyl)-(trans-4-methyl-cyclohexanecarbonyl)-amino]-thiophene-2-carboxylic acid] | – | < 5 µM
5 | CC1CCC(C(=O)N(c2cc(C3=CCCCC3)sc2C(=O)O)C2CCc3ccccc3C2)CC1 (stereo not drawn) [Compound 66, RS-5-cyclohex-1-enyl-3-[(4-trans-methyl-cyclohexanecarbonyl)-(1,2,3,4-tetrahydro-naphthalen-2-yl)-amino]-thiophene-2-carboxylic acid] | – | < 5 µM
6 | COc1ccc2c(c1)CC(N(C(=O)C1CCC(C)CC1)c1cc(C3=CCCCC3)sc1C(=O)O)CC2 (stereo not drawn) [Compound 67, RS-5-cyclohex-1-enyl-3-[(7-methoxy-1,2,3,4-tetrahydro-naphthalen-2-yl)-(4-trans-methyl-cyclohexanecarbonyl)-amino]-thiophene-2-carboxylic acid] | – | < 5 µM
7 | CNC(=O)C1CCC(N(C(=O)C2CCC(C)CC2)c2cc(C3=CCCCC3)sc2C(=O)O)CC1C(=O)O (stereo not drawn) [Compound 68, 3-[(3-trans-carboxy-4-trans-methylcarbamoyl-cyclohexyl)-(4-trans-methyl-cyclohexanecarbonyl)-amino]-5-cyclohex-1-enyl-thiophene-2-carboxylic acid] | – | < 5 µM
8 | C[C@H]1CC[C@H](C(=O)N(c2cc(C3=CCCCC3)sc2C(=O)O)[C@H]2CC[C@H](F)CC2)CC1 [Compound 70, 5-cyclohex-1-enyl-3-[(trans-4-fluoro-cyclohexyl)-(trans-4-methyl-cyclohexanecarbonyl)-amino]-thiophene-2-carboxylic acid] | – | < 5 µM
9 | CC1CCC(C(=O)N(c2cc(C3=CCCCC3)sc2C(=O)O)C2CCC3C(=O)N(C)C(=O)C3C2)CC1 (stereo not drawn) [Compound 72, RS-5-cyclohex-1-enyl-3-[(trans-methyl-cyclohexanecarbonyl)-(2-methyl-1,3-dioxo-octahydro-isoindol-5-yl)-amino]-thiophene-2-carboxylic acid] | – | < 5 µM
10 | CC1CCC(C(=O)N(c2cc(C3=CCCCC3)sc2C(=O)O)C2CCC3(CC2)CN(C)C(=O)N3C)CC1 (stereo not drawn) [Compound 73, 5-cyclohex-1-enyl-3-[cis(1,3-dimethyl-2-oxo-1,3-diaza-spiro[4.5]dec-8-yl)-(trans-4-methyl-cyclohexanecarbonyl)-amino]-thiophene-2-carboxylic acid] | – | < 5 µM
11 | CC1CCC(C(=O)N(c2cc(C3=CCCCC3)sc2C(=O)O)C2CCC3(CC2)CN(C)C(=O)N3C)CC1 (stereo not drawn) [Compound 74, 5-cyclohex-1-enyl-3-[trans-(1,3-dimethyl-2-oxo-1,3-diaza-spiro[4.5]dec-8-yl)-(trans-4-methyl-cyclohexanecarbonyl)-amino]-thiophene-2-carboxylic acid] | < 5 µM | –
12 | C[C@H]1CC[C@H](C(=O)N(c2cc([C@H]3CC[C@H](C)CC3)sc2C(=O)O)[C@H]2CC[C@H](O)CC2)CC1 [Compound 77, 3-[(trans-4-hydroxy-cyclohexyl)-(trans-4-methyl-cyclohexanecarbonyl)-amino]-5-(trans-4-methyl-cyclohexyl)-thiophene-2-carboxylic acid] | – | < 5 µM
13 | C[C@H]1CC[C@H](C(=O)N(c2cc([C@H]3CC[C@@H](C)CC3)sc2C(=O)O)[C@H]2CC[C@H](O)CC2)CC1 [Compound 78, 3-[(trans-4-hydroxy-cyclohexyl)-(trans-4-methyl-cyclohexanecarbonyl)-amino]-5-(cis-4-methyl-cyclohexyl)-thiophene-2-carboxylic acid] | – | < 5 µM
14 | CC1CCC(C(=O)N(c2cc(C3=CCCCC3)sc2C(=O)O)C2CCC3(CC2)CNC(=O)C3)CC1 (stereo not drawn) [Compound 80, 5-cyclohex-1-enyl-3-[(trans-4-methyl-cyclohexanecarbonyl)-cis-(3-oxo-2-aza-spiro[4.5]dec-8-yl)-amino]-thiophene-2-carboxylic acid] | – | < 5 µM
15 | CC1CCC(C(=O)N(c2cc(C3=CCCCC3)sc2C(=O)O)C2CCC3(CC2)CNC(=O)C3)CC1 (stereo not drawn) [Compound 81, 5-cyclohex-1-enyl-3-[(trans-4-methyl-cyclohexanecarbonyl)-trans-(3-oxo-2-aza-spiro[4.5]dec-8-yl)-amino]-thiophene-2-carboxylic acid] | < 5 µM | –
16 | CC1(C)CCC(c2cc(N(C(=O)[C@H]3CC[C@H](C)CC3)[C@H]3CC[C@H](F)CC3)c(C(=O)O)s2)CC1 [Compound 83, 5-(4,4-dimethyl-cyclohexyl)-3-[(trans-4-fluoro-cyclohexyl)-(trans-4-methyl-cyclohexanecarbonyl)-amino]-thiophene-2-carboxylic acid] | – | < 5 µM
17 | CC1CCC(C(=O)N(c2cc(C3=CCCCC3)sc2C(=O)O)C2CCC3(CC2)CC(=O)N(C)C3)CC1 (stereo not drawn) [Compound 84, 5-cyclohex-1-enyl-3-[(trans-4-methyl-cyclohexanecarbonyl)-cis-(2-methyl-3-oxo-2-aza-spiro[4.5]dec-8-yl)-amino]-thiophene-2-carboxylic acid] | – | < 5 µM
18 | CC1CCC(C(=O)N(c2cc(C3CCC(=O)CC3)sc2C(=O)O)C2CCC(O)CC2)CC1 (stereo not drawn) [Compound 86, 3-[(4-trans-hydroxy-cyclohexyl)-(4-trans-methyl-cyclohexanecarbonyl)-amino]-5-(4-oxo-cyclohexyl)-thiophene-2-carboxylic acid] | – | 5 to 25 µM
19 | CC1CCC(C(=O)N(c2cc(C3=CCCCC3)sc2C(=O)O)C2CCN3C(=O)CCC3C2)CC1 (stereo not drawn) [Compound 87, RS-5-cyclohex-1-enyl-3-[(4-trans-methyl-cyclohexanecarbonyl)-(3-oxo-octahydro-indolizin-7-yl)-amino]-thiophene-2-carboxylic acid] | – | < 5 µM
20 | CC1(C)CC=C(c2cc(N(C(=O)[C@H]3CC[C@H](C)CC3)[C@H]3CC[C@@H](n4cncn4)CC3)c(C(=O)O)s2)CC1 [Compound 94, 5-(4,4-dimethyl-cyclohex-1-enyl)-3-[(trans-4-methyl-cyclohexanecarbonyl)-(cis-4-[1,2,4]triazol-1-yl-cyclohexyl)-amino]-thiophene-2-carboxylic acid; hydrochloride] | – | < 5 µM
21 | CC1(C)CC=C(c2cc(N(C(=O)[C@H]3CC[C@H](C)CC3)[C@H]3CC[C@H](n4cncn4)CC3)c(C(=O)O)s2)CC1 [Compound 95, 5-(4,4-dimethyl-cyclohex-1-enyl)-3-[(trans-4-methyl-cyclohexanecarbonyl)-(trans-4-[1,2,4]triazol-1-yl-cyclohexyl)-amino]-thiophene-2-carboxylic acid; hydrochloride] | – | < 5 µM
22 | C[C@H]1CC[C@H](C(=O)N(c2cc(C3=CCCCC3)sc2C(=O)O)C2CCN(c3cncnc3)CC2)CC1 [Compound 96, 5-cyclohex-1-enyl-3-[(trans-4-methyl-cyclohexanecarbonyl)-(1-pyrimidin-5-yl-piperidin-4-yl)-amino]-thiophene-2-carboxylic acid] | – | < 5 µM
23 | CC1(C)CCC(c2cc(N(C(=O)[C@H]3CC[C@H](C)CC3)C3COCOC3)c(C(=O)O)s2)CC1 [Compound 97, 5-(4,4-Dimethyl-cyclohexyl)-3-[[1,3]dioxan-5-yl-(trans-4-methyl-cyclohexanecarbonyl)-amino]-thiophene-2-carboxylic acid] | – | < 5 µM
24 | C[C@H]1CC[C@H](C(=O)N(c2cc(C3=CCCCC3)sc2C(=O)O)C2CCN(C=O)CC2)CC1 [Compound 98, 5-cyclohex-1-enyl-3-[(1-formyl-piperidin-4-yl)-(trans-4-methyl-cyclohexanecarbonyl)-amino]-thiophene-2-carboxylic acid] | – | < 5 µM
25 | CC1CCC(C(=O)N(c2cc(C3=CCCCC3)sc2C(=O)O)C2CCC(C)(C#N)CC2)CC1 (stereo not drawn) [Compound 99, 3-[(cis-4-cyano-4-methyl-cyclohexyl)-(trans-4-methyl-cyclohexanecarbonyl)-amino]-5-cyclohex-1-enyl-thiophene-2-carboxylic acid] | – | < 5 µM
26 | CS(=O)(=O)N1CCC(N(c2cc(C3=CCCCC3)sc2C(=O)O)C(=O)[C@H]2CC[C@H](C)CC2)CC1 [Compound 101, 5-cyclohex-1-enyl-3-[(1-methanesulfonyl-piperidin-4-yl)-(trans-4-methyl-cyclohexanecarbonyl)-amino]-thiophene-2-carboxylic acid] | – | < 5 µM
27 | C[C@H]1CC[C@H](C(=O)N(c2cc(C3=CCCCC3)sc2C(=O)O)C2CCN(C#N)CC2)CC1 [Compound 102, 3-[(1-cyano-piperidin-4-yl)-(trans-4-methyl-cyclohexanecarbonyl)-amino]-5-cyclohex-1-enyl-thiophene-2-carboxylic acid] | – | < 5 µM
28 | CC1CCC(C(=O)N(c2cc(C3=CCCCC3)sc2C(=O)O)C2CCN(c3ncccn3)CC2)CC1 (stereo not drawn) [Compound 103, 5-cyclohex-1-enyl-3-[(trans, 4-methyl-cyclohexanecarbonyl)-(1-pyrimidin-2-yl-piperidin-4-yl)-amino]-thiophene-2-carboxylic acid] | – | < 5 µM
